From publication PMC11153573, “Structural basis for expanded substrate specificities of human long chain acyl-CoA dehydrogenase and related acyl-CoA dehydrogenases” (Scientific Reports, 2024) come the findings set out here.

Experiment [1] addresses T1, human long-chain acyl-CoA dehydrogenase (LCAD) (Homo sapiens, UniProt P28330).
T1 construct: gene ACADL; 400-residue mature protein without 30-residue mitochondrial transport peptide; pET11a-LCAD in E. coli BL21(DE3); no tag mentioned; 43 kDa subunit, homotetramer; numbering of the 430-residue preprotein
T1 sequence (P28330 31-430): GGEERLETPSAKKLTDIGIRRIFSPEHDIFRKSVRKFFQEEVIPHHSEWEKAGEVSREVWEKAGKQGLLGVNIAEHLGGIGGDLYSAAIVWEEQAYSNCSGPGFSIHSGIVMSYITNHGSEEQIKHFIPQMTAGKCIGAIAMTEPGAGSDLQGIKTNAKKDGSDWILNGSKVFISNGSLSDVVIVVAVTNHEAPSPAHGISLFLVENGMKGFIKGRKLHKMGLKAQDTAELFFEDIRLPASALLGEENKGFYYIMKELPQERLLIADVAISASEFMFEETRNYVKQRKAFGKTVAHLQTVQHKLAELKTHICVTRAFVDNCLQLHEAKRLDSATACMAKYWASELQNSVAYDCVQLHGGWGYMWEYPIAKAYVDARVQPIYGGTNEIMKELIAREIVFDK
Briefly: ferricenium reduction assay, spectrophotometric. As to conditions: ferricenium as terminal electron acceptor. The class given is biochemical.

The target of experiment [2] is T1, human long-chain acyl-CoA dehydrogenase (LCAD). In words: X-ray crystallography, […] Å. The class given is binding. As to conditions: noncovalent, one FAD per subunit, at dimer interface; no substrate ligand; pH 8.2-8.5.
Experiment [3] has as its target T2, human long-chain acyl-CoA dehydrogenase (LCAD) (Homo sapiens, UniProt P28330, E291Q).
T2 construct: gene ACADL; 400-residue mature protein without 30-residue mitochondrial transport peptide; pET11a-LCAD in E. coli BL21(DE3); no tag mentioned; 43 kDa subunit, homotetramer; numbering of the 430-residue preprotein
T2 sequence (P28330 31-430 E291Q): T1 sequence (P28330 31-430) with E261Q
In words: X-ray crystallography, […] Å, co-crystallized with C12-CoA. As to conditions: noncovalent, one FAD per subunit; pH 8.2-8.5. It counts as binding.

Experiment [4] has as its target T1, human long-chain acyl-CoA dehydrogenase (LCAD). In words: X-ray crystallography, […] Å, soaked crystal. As to conditions: active site; inhibitor; bound in monomers A and B only; 0.1% beta-octyl glucoside, pH 8.2-8.5. The class given is binding.

Positions count from the first letter of the chain named.

As to `CCCCCCCCCCCC(=O)SCCNC(=O)CCNC(=O)[C@H](O)C(C)(C)COP(=O)(O)OP(=O)(O)OC[C@H]1O[C@@H](n2cnc3c(N)ncnc32)[C@H](O)[C@@H]1OP(=O)(O)O` [C12-CoA], the “ferricenium reduction assay, spectrophotometric” value in experiment [1] is recorded as “The reaction was initiated by addition of C12-CoA substrate”.

`Cc1cc2nc3c(=O)[nH]c(=O)nc-3n(C[C@H](O)[C@H](O)[C@H](O)COP(=O)(O)OP(=O)(O)OC[C@H]3O[C@@H](n4cnc5c(N)ncnc54)[C@H](O)[C@@H]3O)c2cc1C` [FAD]: in experiment [2], the “X-ray crystallography, 2.5 Å” value is reported as “The strong electron density map in the FAD position indicated the correctness of the solution”. Besides, in experiment [3], the “X-ray crystallography, 2.0 Å, co-crystallized with C12-CoA” value was “FAD, Gly412, and the catalytic residue (E291Q) are shown as sticks”. With `CC(=O)CC(=O)SCCNC(=O)CCNC(=O)[C@H](O)C(C)(C)COP(=O)(O)OP(=O)(O)OC[C@H]1O[C@@H](n2cnc3c(N)ncnc32)[C@H](O)[C@@H]1OP(=O)(O)O` [acetoacetyl-CoA], the “X-ray crystallography, 2.8 Å, soaked crystal” value in experiment [4] is on record as “the inhibitor acetoacetyl-CoA can be soaked into the crystals”.
